The values below come from patent publication US20210369787A1, “ADIPOCYTE MEDIATED DELIVERY OF ANTICANCER THERAPEUTICS” (NORTH CAROLINA STATE UNIVERSITY, priority 2018, published 2021).

For data set [1], the system named is 3T3-L1 cell-differentiated adipocytes. Put plainly: Lipid accumulation in adipocytes, Oil Red O staining. Format: cell-based. To be noted: for lipid accumulation in adipocytes: added during 3T3-L1 differentiation, oil red staining. Here is the method: Lipid accumulation in adipocytes was evaluated by Oil Red 0 staining and quantified by optical density measurement at 540 nm. Preadipocytes were cultured, differentiated, and drug encapsulated in 6-well transwell insert, and co-cultured with 5*10^5 pre-cultured B16F10 or fibroblasts in 6 well plate to determine drug release profiles, which was calculated according to drug amount remained in adipocytes. Concentration of free fatty acid in co-cultured medium was measured using Free Fatty Acid Quantitation Kit (Sigma-Aldrich, catalog no. MAK044). […] Then, 100 μL extraction solution (0.75 M HCl in isopropanol) was added and incubated at −20° C. overnight. The fluorescence of supernatant at 498(excitation)/591(emission) nm was measured after centrifugation at 20000 g for 15 min. The maintenance medium was changed three to four times for animal work.

Data set [2] has as its system B16F10 cells. Put plainly: Transwell co-culture of loaded adipocytes with B16F10, MTT. It counts as cell-based, mouse. Here is the method: Cytotoxicity of drug and fatty acid was determined by MTT assay in 96-well plate after 48 h. Tumor cell killing or promoting effect of drug or fatty acid loaded adipocytes was determined in a transwell system where adipocytes were seeded in the 24 well plate and tumor cells grew in the transwell insert. After culturing for 72 h, cell proliferation of cancer cells in the transwell insert was determined by MTT assay.
(§1) For Western blot, flow cytometry, and adipokine profiling (R&D Systems catalog no. ARY013), 6 well transwell system was used with cancer cells cultured in the transwell insert and adipocytes in the bottom. Cells or medium were analyzed after co-culturing for 72 h. To determine the role of FABP4 during the crosstalk, 30 μM BMS309403 was added in the medium to block FABP4. Antibodies used for Western blot included β-actin (catalog no. sc-47778, Santa Cruz), FABP4 (catalog no. 701158, Thermo Fisher), PD-L1 (catalog no. ab205921, Abcam). PE channel was used to determine pDox fluorescence in adipocytes and cancer cells.

The test system of another data set is PD-L1. Briefly: PD-L1 expression of B16F10 in transwell system, Western blot. It counts as cell-based, mouse. How it is done:
as §1

Data set [3] concerns B16F10 cells. Put plainly: pDox uptake and transport from adipocytes to B16F10 in transwell, flow cytometry. Format: cell-based, mouse. How it is done:
as §1

Data set [4] relates to FABP4. Briefly: FABP4 amount in B16F10 cells after transwell co-culture, Western blot. Format: cell-based, mouse. How it is done: as §1
Data set [5] concerns the target FABP4 (Homo sapiens, UniProt P15090). Put plainly: Fluorescence polarization binding of Dox or pDox to FABP4. How it is done:
Fluorescence polarization was measured using QuantaMaster 40 UV/VIS Steady State Spectrofluorometer (Photon Technology International). The dissociation constant (Kd) was calculated for each by fitting the observed polarization ([mP]) to a general equation for two state binding as previously described.2

FABP4 (Homo sapiens, UniProt P15090), sequence (P15090 whole entry, species assumed): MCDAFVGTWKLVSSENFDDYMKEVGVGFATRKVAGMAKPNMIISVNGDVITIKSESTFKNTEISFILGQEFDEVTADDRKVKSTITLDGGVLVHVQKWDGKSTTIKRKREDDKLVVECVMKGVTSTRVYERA

As to `CCCCCC/C=C/C=C\CCCCCCCC(=O)O` [RA, 9Z, 11E-conjugated linoleic acid], in data set [1] (RA added during differentiation), the “effect on inhibition of lipid droplet formation by Dox and pDox” value is reported as “partially reversed”. The “lipid accumulation in adipocytes” value in data set [1] was “enhance lipid accumulation”.
As for `CCc1c(-c2ccccc2)c(-c2ccccc2)nn1-c1ccccc1-c1cccc(OCC(=O)O)c1` [BMS309403], the “effect on cytotoxicity of pDox from adipocytes to B16F10 cells” value in the data set with B16F10 cells [2] (BMS309403 added to transwell medium (30 μM)) is recorded as “partially reversed”. Besides, the “effect on cell killing by pDox+RA@adipocytes” value with B16F10 cells [2] (FABP4 inhibitor in transwell medium) is “partially reversed”. The “effect on PD-L1 suppression by RA@adipocytes and CLA@adipocyte” value in the data set on PD-L1 is “partially reversed”. In addition, the “effect on uptake of pDox in adipocytes” value in the data set with B16F10 cells [3] (during pDox absorption) is on record as “did not affect”. The “effect on RA@adipocyte-promoted pDox uptake” value with B16F10 cells [3] (transwell co-culture) was “inhibited”. In addition, the “effect on transportation of pDox from adipocytes to B16F10 cells” value with B16F10 cells [3] (transwell, flow cytometry) was “partially inhibited”. In the data set with FABP4 [4], the “effect on adipocyte-induced rise of FABP4 in B16F10 cells” value is on record as “inhibit”.
Turning to `COc1cccc2c1C(=O)c1c(O)c3c(c(O)c1C2=O)C[C@@](O)(C(=O)CO)C[C@@H]3O[C@H]1C[C@H](N)[C@H](O)[C@H](C)O1` [Dox, doxorubicin], at FABP4 [5], the “specific binding to FABP4” value was “almost no specific binding”. Further, in data set [1], the “lipid accumulation in adipocytes” value is on record as “significantly inhibited”.
